# US10689377B2 (Mirati Therapeutics, Inc., priority 2017, dated 2020)
# Target: KRas G12C (Homo sapiens, UniProt P01116, G12C)
# Assay: Cellular inhibition of KRas G12C measured by Phospho-ERK in NCI-H358 cells
# Assay type: cell-based
# Conditions: pERK(Thr202/Tyr204) normalized with GAPDH, NCI-H358 cells, 3 hours; read-out: IC50
# Procedure, shortened: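 Readout is pERK(Thr202/Tyr204) immunofluorescence normalized to GAPDH, expressed as percent of DMSO control and fitted with a 4-parameter curve for IC50. Attached NCI-H358 cells received compound for 3 hours in 0.5% DMSO, followed by fixation and methanol permeabilization.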
# KRas G12C, sequence (P01116 1-188 isoform P01116-2 G12C): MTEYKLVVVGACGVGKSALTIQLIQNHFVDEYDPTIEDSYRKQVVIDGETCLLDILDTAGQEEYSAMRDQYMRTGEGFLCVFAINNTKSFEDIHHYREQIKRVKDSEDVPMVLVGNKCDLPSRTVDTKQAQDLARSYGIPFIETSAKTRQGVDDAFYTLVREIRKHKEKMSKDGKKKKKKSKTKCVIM
row,SMILES,IC50 [nM]
1,C=CC(=O)N1CCN(c2nc(OC[C@@H]3CCCN3C)nc3c2CCN(c2cccc(C)c2C(F)(F)F)C3)CC1CC#N (stereo partly drawn) [Example 265],0.1 to 1000
2,"C=CC(=O)N1CCN(c2nc(OCC(C)(C)N(C)C)nc3c2CCN(c2cccc4ccccc24)C3)CC1CC#N (stereo not drawn) [Example 269, 2-(1-acryloyl-4-(2-(2-(dimethylamino)-2-methylpropoxy)-7-(naphthalen-1-yl)-5,6,7,8-tetrahydropyrido[3,4-d]pyrimidin-4-yl)piperazin-2-yl)acetonitrile]",0.1 to 1000
3,"C=CC(=O)N1CCN(c2nc(OC[C@H]3CCCN3C)nc3c2CCN(c2cccc(F)c2C(F)(F)F)C3)C[C@@H]1CC#N [Example 274, 2-((S)-1-acryloyl-4-(7-(3-fluoro-2-(trifluoromethyl)phenyl)-2-(((R)-1-methylpyrrolidin-2-yl)methoxy)-5,6,7,8-tetrahydropyrido[3,4-d]pyrimidin-4-yl)piperazin-2-yl)acetonitrile]",0.1 to 1000
4,C=CC(=O)N1CCN(c2nc(OC[C@@H]3CCCN3C)nc3c2CCN(c2c(F)cccc2C(F)(F)F)C3)CC1CC#N (stereo partly drawn) [Example 275],0.1 to 1000
5,C=CC(=O)N1CCN(c2nc(OC[C@@H]3CCCN3C)nc3c2CCN(c2ccc(F)cc2C(F)(F)F)C3)CC1CC#N (stereo partly drawn) [Example 276],0.1 to 1000
6,"C=CC(=O)N1CCN(c2nc(OC[C@@H]3CCCN3C)nc3c2CCN(c2cccc(Cl)c2C(F)(F)F)C3)CC1CC#N (stereo partly drawn) [Example 277, 2-(1-acryloyl-4-(7-(3-chloro-2-(trifluoromethyl)phenyl)-2-(((S)-1-methylpyrrolidin-2-yl)methoxy)-5,6,7,8-tetrahydropyrido [3,4-d]pyrimidin-4-yl)piperazin-2-yl)acetonitrile]",0.1 to 1000
7,"C=CC(=O)N1CCN(c2nc(OCCN(C)C)nc3c2CCN(c2ccccc2C(F)(F)F)C3)CC1CC#N (stereo not drawn) [Example 279, 2-(1-acryloyl-4-(2-(2-(dimethylamino)ethoxy)-7-(2-(trifluoromethyl)phenyl)-5,6,7,8-tetrahydropyrido[3,4-d]pyrimidin-4-yl)piperazin-2-yl)acetonitrile]",0.1 to 1000
8,"C=CC(=O)N1CCN(c2nc(OCCCN3C[C@H]4C[C@@H]3CO4)nc3c2CCN(c2ccccc2C(F)(F)F)C3)CC1CC#N (stereo partly drawn) [Example 280, 2-(4-(2-(3-((1R,4R)-2-oxa-5-azabicyclo[2.2.1]heptan-5-yl)propoxy)-7-(2-(trifluoromethyl)phenyl)-5,6,7,8-tetrahydropyrido [3,4-d]pyrimidin-4-yl)-1-acryloylpiperazin-2-yl)acetonitrile]",0.1 to 1000
9,"C=CC(=O)N1CCN(c2nc(OC[C@@H]3CCN(C)C3)nc3c2CCN(c2ccccc2C(F)(F)F)C3)CC1CC#N (stereo partly drawn) [Example 281, 2-(1-acryloyl-4-(2-(((R)-1-methylpyrrolidin-3-yl)methoxy)-7-(2-(trifluoromethyl)phenyl)-5,6,7,8-tetrahydropyrido[3,4-d]pyrimidin-4-yl)piperazin-2-yl)acetonitrile]",0.1 to 1000
10,"C=CC(=O)N1CCN(c2nc(OCCN(CC)CC)nc3c2CCN(c2ccccc2C(F)(F)F)C3)CC1CC#N (stereo not drawn) [Example 284, 2-(1-acryloyl-4-(2-(2-(diethylamino)ethoxy)-7-(2-(trifluoromethyl)phenyl)-5,6,7,8-tetrahydropyrido[3,4-d]pyrimidin-4-yl)piperazin-2-yl)acetonitrile]",0.1 to 1000
11,"C=CC(=O)N1CCN(c2nc(OC[C@@H]3CCCN3C(C)C)nc3c2CCN(c2cccc4ccccc24)C3)CC1CC#N (stereo partly drawn) [Example 285, 2-[4-[2-[[(2S)-1-isopropylpyrrolidin-2-yl]methoxy]-7-(1-naphthyl)-6,8-dihydro-5H-pyrido[3,4-d]pyrimidin-4-yl]-1-prop-2-enoyl-piperazin-2-yl]acetonitrile]",0.1 to 1000

# Second part, the molecule after the results:
row,IC50 [nM],SMILES
1,> 1000,"C=CC(=O)N1CCN(c2nc(OC[C@@H]3CCCN3C)nc3c2CCN(c2cccc4cnccc24)C3)CC1CC#N (stereo partly drawn) [Example 262, 2-[4-[7-(5-isoquinolyl)-2-[[(2S)-1-methylpyrrolidin-2-yl]methoxy]-6,8-dihydro-5H-pyrido[3,4-d]pyrimidin-4-yl]-1-prop-2-enoyl-piperazin-2-yl]acetonitrile]"
2,0.1 to 1000,"C/C=C/C(=O)N1CCN(c2nc(OC[C@@H]3CCCN3C)nc3c2CCN(c2cccc4ccccc24)C3)CC1CC#N (stereo partly drawn) [Example 263, 2-[1-[(E)-but-2-enoyl]-4-[2-[[(2S)-1-methylpyrrolidin-2-yl]methoxy]-7-(1-naphthyl)-6,8-dihydro-5H-pyrido[3,4-d]pyrimidin-4-yl]piperazin-2-yl]acetonitrile]"
3,> 1000,"C=CC(=O)N1CCN(c2nc(OC[C@@H]3CCCN3C)nc3c2CCN(c2cccc4ncccc24)C3)CC1CC#N (stereo partly drawn) [Example 264, 2-[4-[2-[[(2S)-1-methylpyrrolidin-2-yl]methoxy]-7-(5-quinolyl)-6,8-dihydro-5H-pyrido[3,4-d]pyrimidin-4-yl]-1-prop-2-enoyl-piperazin-2-yl]acetonitrile]"
4,0.1 to 1000,"C=CC(=O)N1CCN(c2nc(OC[C@@H]3CCCN3CCOC)nc3c2CCN(c2cccc4ccccc24)C3)CC1CC#N (stereo partly drawn) [Example 266, 2-(1-acryloyl-4-(2-(((S)-1-(2-methoxyethyl)pyrrolidin-2-yl)methoxy)-7-(naphthalen-1-yl)-5,6,7,8-tetrahydropyrido[3,4-d]pyrimidin-4-yl)piperazin-2-yl)acetonitrile]"
5,0.1 to 1000,"C=CC(=O)N1CCN(c2nc(OC[C@@H]3C[C@@H](OC)CN3C)nc3c2CCN(c2cccc4ccccc24)C3)CC1CC#N (stereo partly drawn) [Example 268, 2-(1-acryloyl-4-(2-(((2S,4R)-4-methoxy-1-methylpyrrolidin-2-yl)methoxy)-7-(naphthalen-1-yl)-5,6,7,8-tetrahydropyrido[3,4-d]pyrimidin-4-yl)piperazin-2-yl)acetonitrile]"
6,0.1 to 1000,"C=CC(=O)N1CCN(c2nc(OC[C@H]3CN(C)CCO3)nc3c2CCN(c2cccc4ccccc24)C3)CC1CC#N (stereo partly drawn) [Example 270, 2-(1-acryloyl-4-(2-(((R)-4-methylmorpholin-2-yl)methoxy)-7-(naphthalen-1-yl)-5,6,7,8-tetrahydropyrido[3,4-d]pyrimidin-4-yl)piperazin-2-yl)acetonitrile]"
7,0.1 to 1000,"C=CC(=O)N1CCN(c2nc(OC[C@@H]3CN(C)CCO3)nc3c2CCN(c2cccc4ccccc24)C3)CC1CC#N (stereo partly drawn) [Example 271, 2-(1-acryloyl-4-(2-(((S)-4-methylmorpholin-2-yl)methoxy)-7-(naphthalen-1-yl)-5,6,7,8-tetrahydropyrido[3,4-d]pyrimidin-4-yl)piperazin-2-yl)acetonitrile]"
8,0.1 to 1000,"C=CC(=O)N1CCN(c2nc(OC[C@@H]3COCCN3C)nc3c2CCN(c2cccc4ccccc24)C3)CC1CC#N (stereo partly drawn) [Example 272, 2-(1-acryloyl-4-(2-(((S)-4-methylmorpholin-3-yl)methoxy)-7-(naphthalen-1-yl)-5,6,7,8-tetrahydropyrido[3,4-d]pyrimidin-4-yl)piperazin-2-yl)acetonitrile]"
9,> 1000,"C=CC(=O)N1CCN(c2nc(OC[C@H]3COCCN3C)nc3c2CCN(c2cccc4ccccc24)C3)CC1CC#N (stereo partly drawn) [Example 273, 2-(1-acryloyl-4-(2-(((R)-4-methylmorpholin-3-yl)methoxy)-7-(naphthalen-1-yl)-5,6,7,8-tetrahydropyrido[3,4-d]pyrimidin-4-yl)piperazin-2-yl)acetonitrile]"
10,0.1 to 1000,"C=CC(=O)N1CCN(c2nc(OC[C@@H]3CCCN3C)nc3c2CCN(c2ccnc4ccccc24)C3)CC1CC#N (stereo partly drawn) [Example 278, 2-(1-acryloyl-4-(2-(((S)-1-methylpyrrolidin-2-yl)methoxy)-7-(quinolin-4-yl)-5,6,7,8-tetrahydropyrido[3,4-d]pyrimidin-4-yl)piperazin-2-yl)acetonitrile]"
11,> 1000,"CC(C)=CC(=O)N1CCN(c2nc(OC[C@@H]3CCCN3C)nc3c2CCN(c2cccc4ccccc24)C3)CC1CC#N (stereo partly drawn) [Example 282, 2-(1-(3-methylbut-2-enoyl)-4-(2-(((S)-1-methylpyrrolidin-2-yl)methoxy)-7-(naphthalen-1-yl)-5,6,7,8-tetrahydropyrido[3,4-d]pyrimidin-4-yl)piperazin-2-yl)acetonitrile]"
12,0.1 to 1000,"C=CC(=O)N1CCN(c2nc(OC[C@H]3CCCN3C)nc3c2CCN(c2ccccc2C(F)(F)F)C3)CC1CC#N (stereo partly drawn) [Example 283, 2-(1-acryloyl-4-(2-(((R)-1-methylpyrrolidin-2-yl)methoxy)-7-(2-(trifluoromethyl)phenyl)-5,6,7,8-tetrahydropyrido[3,4-d]pyrimidin-4-yl)piperazin-2-yl)acetonitrile]"
13,0.1 to 1000,"C=CC(=O)N1CCN(c2nc(OC[C@@H]3CCCN3C)nc3c2CCN(c2cccc4ccc(Cl)cc24)C3)CC1CC#N (stereo partly drawn) [Example 286, 2-(1-acryloyl-4-(7-(7-chloronaphthalen-1-yl)-2-(((S)-1-methylpyrrolidin-2-yl)methoxy)-5,6,7,8-tetrahydropyrido[3,4-d]pyrimidin-4-yl)piperazin-2-yl)acetonitrile]"
14,0.1 to 1000,"C=CC(=O)N1CCN(c2nc(OC[C@@H]3CCCN3C)nc3c2CCN(c2cccc4c(F)cccc24)C3)CC1CC#N (stereo partly drawn) [Example 287, 2-[4-[7-(5-fluoro-1-naphthyl)-2-[[(2S)-1-methylpyrrolidin-2-yl]methoxy]-6,8-dihydro-5H-pyrido[3,4-d]pyrimidin-4-yl]-1-prop-2-enoyl-piperazin-2-yl]acetonitrile]"
15,> 1000,"C=CC(=O)N1CCN(c2nc(OC[C@@H]3CCCN3C)nc3c2CCN(c2cccc4ccc(OC)cc24)C3)CC1CC#N (stereo partly drawn) [Example 288, 2-[4-[7-(7-methoxy-1-naphthyl)-2-[[(2S)-1-methylpyrrolidin-2-yl]methoxy]-6,8-dihydro-5H-pyrido[3,4-d]pyrimidin-4-yl]-1-prop-2-enoyl-piperazin-2-yl]acetonitrile]"
16,> 1000,"C=CC(=O)N1CCN(c2nc(OC[C@@H]3CCCN3C)nc3c2CCN(c2nccc4ccccc24)C3)CC1CC#N (stereo partly drawn) [Example 289, 2-[4-[7-(1-isoquinolyl)-2-[[(2S)-1-methylpyrrolidin-2-yl]methoxy]-6,8-dihydro-5H-pyrido[3,4-d]pyrimidin-4-yl]-1-prop-2-enoyl-piperazin-2-yl]acetonitrile]"
